In assay [1] the target is T1, human Oxytocin (hOT) receptor (Homo sapiens, UniProt P30559).
T1 construct: expressed in transfected cells; host or cells: HEK293EBNA (membranes)
T1 sequence (P30559 1-389): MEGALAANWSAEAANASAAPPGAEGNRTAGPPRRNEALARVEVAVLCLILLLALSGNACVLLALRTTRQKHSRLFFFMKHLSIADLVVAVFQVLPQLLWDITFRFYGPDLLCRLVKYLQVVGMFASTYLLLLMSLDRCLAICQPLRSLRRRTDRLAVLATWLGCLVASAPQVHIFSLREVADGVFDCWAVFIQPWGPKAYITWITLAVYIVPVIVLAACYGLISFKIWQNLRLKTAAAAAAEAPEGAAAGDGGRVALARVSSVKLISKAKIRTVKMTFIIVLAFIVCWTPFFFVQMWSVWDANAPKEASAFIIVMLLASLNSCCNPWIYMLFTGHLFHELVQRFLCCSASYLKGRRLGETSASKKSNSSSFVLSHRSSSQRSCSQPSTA
Briefly: In vitro competition binding assay on hOT receptor with scintillation proximity assay. To be noted: inhibition of [125I]-OVTA binding, membranes from HEK293EBNA cells expressing hOT receptor; read-out: Binding Affinity hOT-R (Ki [nM]). As for the experimental part:
The compounds according to Formula I may be subjected to the following assays: • a) In vitro Competition Binding Assay on hOT Receptor with Scintillation Proximity Assay (11).
This assay allows to determine the affinity of the test compounds for the human Oxytocin (hOT) receptor. Membranes from HEK293EBNA (cells expressing the hOT receptor) were suspended in buffer containing 50 mM Tris-HCl, pH 7.4, 5 mM MgCl2 and 0.1% BSA (w/v). The membranes (2–4 μg) were mixed with 0.1 mg SPA bead coated with wheat-germ aglutinin (WGA-PVT-Polyethylene Imine beads from Amersham) and 0.2 nM of the radiolabelled [^125I]-OVTA (OVTA being Ornithin Vasoactive, an analogue of OT for competitive binding experiments). Non-specific binding was determined in the presence of 1 μM Oxytocin. The total assay volume was 100 μl. The plates (Corning® NBS plate) were incubated at room temperature for 30 min and counted on a Mibrobeta® plate scintillation counter. Competitive binding was performed in presence of compounds of formula (I) at the following concentrations: 30 μM, 10 μM, 1 μM, 300 nM, 100 nM, 10 nM, 1 nM, 100 pM, 10 pM. The competitive binding data were analysed using the iterative, nonlinear, curve-fitting program, “Prism” (GraphPad Software, Inc).
The ability of pyrrolidine derivatives of formula (I) to inhibit the binding of ^125-OVTA to the OT-receptor was assessed using the above described in vitro biological assay. Representative values for some example compounds are given in Table I where the binding affinity of test compounds from the above examples is expressed by the inhibition constant (Ki; nM). From these values, it can be derived that said test compounds according to formula I do show a significant binding to the oxytocin receptor.
A general note: SPA uses beads or plates that emit light when radiolabelled molecules are held near them.

Assay [2] addresses T2, hOT receptor (HEK293EBNA cells expressing the hOT receptor) (Homo sapiens, UniProt P30559).
T2 construct: expressed in transfected cells; host or cells: HEK293EBNA
T2 sequence (P30559 1-389): T1 sequence (P30559 1-389)
Briefly: Functional assay No. 1: inhibition of oxytocin mediated Ca2+-mobilization by FLIPR. The format is cell-based. To be noted: OT 40 nM, fluo-4, read-out: Inhibition of Ca2+ mobilisation, hOT-R IC50. For orientation: A change in cytosolic calcium serves as a functional read-out for many receptors and channels.
Protocol: This assay allows the measurement of the inhibition of OT/OT-R mediated calcium mobilization by test compounds of formula (I).
Preparing the plates: FLIPR-plates were pre-coated with PLL (Poly-L-Lysine) 10 μg/ml+0.1% gelatine to attach HEK293EBNA cells (Human Embryonic Kidney cells expressing the hOT receptor) and incubated for 30 min up to 2 days at 37° C. The cells were plated out into 96-well-plates (60000 cells/well).
Labelling with fluo-4: 50 μg of fluo-4 (Ca2+ sensitive fluorescent dye) were dissolved in 20 μl pluronic acid (20% in DMSO). The dissolved fluo-4 was then diluted in 10 ml DMEM (Dubecco's Minimal Essential Medium)-F12 culture medium. The plates were washed one time with DMEM-F12 medium. […] Fluo-4 is taken up by the cytoplasm of the cells. […]
The relative fluorescence of Fluo-4 (λex=488 nm, λem=590 nm) is then measured by the FLIPR in presence or absence of compounds of formula (I). The fluorescence of the marker being sensitive to the amount of Ca^2+, the Ca^2+ movements can be detected. Then, it can be determined the ability of compounds of formula (I) to antagonize the oxytocin-induced intracellular Ca^2+-mobilization mediated by the oxytocin receptor.
The activities of the pyrrolidine derivatives according to formula I were assessed using the above described in vitro biological assay. […]

Assay [3] has as its system oxytocin-induced uterine contractions in the rat. Briefly: In vivo model for inhibition of uterine contractions. To be noted: 40 min after test compound administration. Here is the method:
The ability of compounds of formula (I) to effectively antagonize oxytocin-induced IP3-synthesis mediated by the oxytocin receptor, can be assessed using the above described in vitro biological assay. • d) In vivo Model for Inhibition of Uterine Contractions
The assay evaluates the biological effect of tested compounds in an in vivo model of preterm labor, premature birth.
Non-pregnant Charles River CD (SD) BR female rats (9–10 weeks old, 200–250 g) were treated at 18 and 24 hours before the experiment with 250 μg/kg, i.p. diethylstilbestrol (DES). For the assay, the animal was anaesthetised with urethane (1.75 g/kg, i.p.) and placed on a homeothermic operating table. The trachea was isolated and cannulated with a suitable polyethylene (PE) tubing. […]
The contractile response of the uterus to oxytocin was quantified by measuring the intra-uterine pressure and the number of contractions. The effect of the reference and test compounds was evaluated by comparing pre- and post-treatment pressure values. In addition, contractions of the uterine were measured at 5, 40, 75, 110, 145 and 180 minutes after test compound administration.
The activities of the pyrrolidine derivatives claimed in the Formula I can be assessed using the above described in vivo biological assay. […]

One may read the Ki as the equilibrium dissociation constant of an inhibitor or competing ligand from its target. By IC50 is commonly meant the concentration that gives 50% inhibition.

On to `CON=C1C[C@@H](CO)N(C(=O)c2ccc(-c3ccccc3)cc2)C1` [Compound 2, (3EZ,5S)-1-(1,1′-biphenyl-4-ylcarbonyl)-5 (hydroxymethyl) pyrrolidin-3-one O-methyloxime], for which, in assay [1], the Ki stood at 139 nM. Also, the half-maximal inhibitory concentration (IC50) in assay [2] is 90 nM. Moreover, the figures for the “% Reduction of Uterine Contraction” value in assay [3] (10 mg/kg per i.v.) and in assay [3] (30 mg/kg per os) were 39.8 ± 10.0% and 50.9 ± 8.6%, respectively.

With `CO/N=C1/C[C@@H](CO)N(C(=O)c2ccc(-c3ccccc3)cc2)C1` [Compound 4, (3Z,5S)-1-(1,1′-biphenyl-4-ylcarbonyl)-5-(hydroxymethyl) pyrrolidin-3-one O-methyloxime], the Ki in assay [1] worked out at 94.9 nM. The IC50 in assay [2] amounted to 10 nM.

For `CON=C1C[C@@H](COCC(=O)NCCN2CCCC2)N(C(=O)c2ccc(-c3ccccc3)cc2)C1` [Compound 7, 2-{[(2S,4EZ)-1-(1,1′-biphenyl-4-ylcarbonyl)-4-(methoxyimino)pyrrolidin-2-yl]methoxy}-N-(2-pyrrolidin-1-ylethyl)acetamide], in assay [1], the Ki was found to be 140 nM.

`COC[C@@H]1CC(=NOC)CN1C(=O)c1ccc(-c2ccccc2)cc1` [Compound 8, (3EZ,5S)-1-(1,1′-biphenyl-4-ylcarbonyl)-5-(methoxymethyl)pyrrolidin-3-one O-methyloxime]: the Ki in assay [1] came to 55 nM.

`CON=C1C[C@@H](CN2C(=O)c3ccccc3C2=O)N(C(=O)c2ccc(-c3ccccc3)cc2)C1` [Compound 12, 2-{[(2S,4EZ)-1-(1,1′-biphenyl-4-ylcarbonyl)-4-(methoxyimino)pyrrolidin-2-yl]methyl}-1H-isoindole-1,3(2H)-dione]: in assay [1], the Ki was 5.1 nM.

For the molecule `CON=C1C[C@@H](CCO)N(C(=O)c2ccc(-c3ccccc3)cc2)C1` [Compound 16, (3EZ,5S)-1-(1,1′-biphenyl-4-ylcarbonyl)-5-(2-hydroxyethyl)pyrrolidin-3-one O-methyloxime], the Ki in assay [1] was found to be 120 nM.

(Values after patent US7115754B2, “Pyrrolidine derivatives as oxytocin antagonists” (Applied Research Systems ARS Holding N.V., priority 2002, dated 2006).)
